Earlier results in patent US20090022786A1, “Oral pharmaceutical dosage form and manufacturing method thereof” (YUNG SHIN PHARM. IND. CO., LTD., priority 2007, published 2009).
Counter-ions that a name gives are not always drawn. Like-named read-outs stand apart in the source and are kept apart here.

How the values were obtained:
gastric acid secretion = details: oral
[1] = not given; remark: listed apart in the source
[2] = not given; remark: listed apart in the source
[3] = not given; remark: listed apart in the source
[4] = as glucuronate- or sulfate-associated form

Compound | Time to inhibition of gastric acid secretion (gastric acid secretion) | Stability at room temperature (room temperature) | Solubility in water [1] | Fraction eliminated with urine ([2]; in 24 hours) | Elimination half-life ([2]; in vivo) | Fraction eliminated with the faeces ([2]; in vivo) | Absorption after oral administration ([2]; oral) | Time of maximum plasma concentration ([2]; oral) | Fraction eliminated with the faeces after biliary secretion [3, 4] | Fraction eliminated with urine [3, 4] | Binding to plasma protein ([3]; in vivo) | Half-life ([3]; in vivo) | Fraction entering systematic circulation ([3]; oral) | Peak value of plasma concentration ([3]; oral single dose of 50 mg) | Time of maximum plasma concentration ([3]; oral single dose of 50 mg) | Stability to humidity and light (humidity and light) | Solubility in chloroform ([1]; chloroform) | Solubility in ethanol ([1]; ethanol) | Solubility in methanol ([1]; methanol)
CCCCC(C)(O)C/C=C/[C@H]1[C@H](O)CC(=O)[C@@H]1CCCCCCC(=O)OC (mixture of isomers) [Misoprostol, (±) methyl 11α,16-dihydroxy-16-methyl-9-oxoprost-13E-en-1-oate] | ≤ 30 min | very unstable | soluble | 64-73% | 20 to 40 min | 15% | rapidly absorbed | 15 to 30 min |  |  |  |  |  |  |  |  |  |  | 
O=C(O)Cc1ccccc1Nc1c(Cl)cccc1Cl [Diclofenac sodium, 2-[(2,6-dichlorophenyl)amino] benzene acetic acid, monosodium salt] |  |  | somewhat |  |  |  |  |  | 1/30 | ⅔ | More than 90% | 60 to 120 min | 50-60% | 1.5 µg/mL | 1 to 2 h | accessible to be destroyed by humidity and light | extremely insoluble | soluble | soluble
